Results from PubChem BioAssay AID1259407 (Chemical Carcinogenesis Research Information System (CCRIS), 2018).
Activity calls are given as the source filed them. How the calls were made is not given here.

Tested on: CCRIS mutagenicity, Ames/micronucleus/aberration tests
Experiment: CCRIS mutagenicity studies
Description: The CCRIS database contains chemical records with carcinogenicity, mutagenicity, tumor promotion, and tumor inhibition test results. It was developed by the National Cancer Institute (NCI). Data are derived from studies cited in primary journals, current awareness tools, NCI reports, and other sources. Test results have been reviewed by experts in carcinogenesis and mutagenesis.
CCRIS provides historical information from the years 1985 - 2011. It is no longer updated.
This is an archive assay for CCRIS mutagenicity studies.

For `CCN(CC)N=O`, the mutagenic call (End Point: IN VITRO MICRONUCLEUS, Test System: AHH-1 CELLS, Metabolic Activation: NONE) was “active; positive”, the mutagenic call (End Point: IN VITRO MICRONUCLEUS, Test System: MCL-5 CELLS, Metabolic Activation: NONE) was “active; positive” and the mutagenic call (Test System: AMES SALMONELLA TYPHIMURIUM, Strain/Indicator: TA97, Metabolic Activation: NONE, Method: PREINCUBATION) was “inactive; negative”. For the same compound, the mutagenic call (Test System: AMES SALMONELLA TYPHIMURIUM, Strain/Indicator: TA97, Metabolic Activation: RAT LIVER S-9, AROCLOR, Method: PREINCUBATION) was “inactive; negative”, the mutagenic call (Test System: AMES SALMONELLA TYPHIMURIUM, Strain/Indicator: TA98, Metabolic Activation: HAMSTER, LIVER, S-9, AROCLOR 1254 (30%), Method: PREINCUBATION) was “active; positive” and the mutagenic call (Test System: AMES SALMONELLA TYPHIMURIUM, Strain/Indicator: TA98, Metabolic Activation: NONE, Method: PREINCUBATION) was “active; positive”. For the same compound, the mutagenic call (Test System: AMES SALMONELLA TYPHIMURIUM, Strain/Indicator: TA98, Metabolic Activation: RAT LIVER S-9, AROCLOR, Method: PREINCUBATION) was “active; positive”, the mutagenic call (Test System: AMES SALMONELLA TYPHIMURIUM, Strain/Indicator: TA98, Metabolic Activation: RAT, LIVER, S-9, AROCLOR 1254 (30%), Method: PREINCUBATION) was “inactive; negative” and the mutagenic call (Test System: AMES SALMONELLA TYPHIMURIUM, Strain/Indicator: TA98, Metabolic Activation: RAT, LIVER, S-9, AROCLOR 1254, Method: STANDARD PLATE) was “active; positive”. The mutagenic call (Test System: AMES SALMONELLA TYPHIMURIUM, Strain/Indicator: TA98, Metabolic Activation: RAT, LIVER, S-9, KC500 OR PHENOBARBITAL, Method: LIQUID SUSPENSION) was “active; positive”, the mutagenic call (Test System: AMES SALMONELLA TYPHIMURIUM, Strain/Indicator: TA98, Metabolic Activation: RAT, LIVER, S-9, PHENOBARBITAL, Method: PREINCUBATION) was “active; positive” and the mutagenic call (Test System: AMES SALMONELLA TYPHIMURIUM, Strain/Indicator: TA98NR, Metabolic Activation: NONE, Method: PREINCUBATION) was “inactive; negative”. The mutagenic call (Test System: AMES SALMONELLA TYPHIMURIUM, Strain/Indicator: TA98NR, Metabolic Activation: RAT LIVER S-9, AROCLOR, Method: PREINCUBATION) was “active; positive”, the mutagenic call (Test System: AMES SALMONELLA TYPHIMURIUM, Strain/Indicator: TA100, Metabolic Activation: HAMSTER, LIVER, S-9, AROCLOR 1254 (30%), Method: PREINCUBATION) was “active; positive” and the mutagenic call (Test System: AMES SALMONELLA TYPHIMURIUM, Strain/Indicator: TA100, Metabolic Activation: MOUSE, INTACT UROTHELIAL CELLS, Method: FLUCTUATION TEST) was “active; positive”. The mutagenic call (Test System: AMES SALMONELLA TYPHIMURIUM, Strain/Indicator: TA100, Metabolic Activation: MOUSE, KIDNEY, S-9, PHENETHYL ISOTHIOCYANATE, Method: PREINCUBATION) was “inactive; negative”, the mutagenic call (Test System: AMES SALMONELLA TYPHIMURIUM, Strain/Indicator: TA100, Metabolic Activation: MOUSE, KIDNEY, S-9, Method: PREINCUBATION) was “active; positive” and the mutagenic call (Test System: AMES SALMONELLA TYPHIMURIUM, Strain/Indicator: TA100, Metabolic Activation: MOUSE, LIVER, S-9, PHENETHYL ISOTHIOCYANATE, Method: PREINCUBATION) was “inactive; negative”. The mutagenic call (Test System: AMES SALMONELLA TYPHIMURIUM, Strain/Indicator: TA100, Metabolic Activation: MOUSE, LIVER, S-9, Method: PREINCUBATION) was “active; positive”, the mutagenic call (Test System: AMES SALMONELLA TYPHIMURIUM, Strain/Indicator: TA100, Metabolic Activation: MOUSE, LUNG, S-9, PHENETHYL ISOTHIOCYANATE, Method: PREINCUBATION) was “inactive; negative” and the mutagenic call (Test System: AMES SALMONELLA TYPHIMURIUM, Strain/Indicator: TA100, Metabolic Activation: MOUSE, LUNG, S-9, Method: PREINCUBATION) was “inactive; negative”. For the same compound, the mutagenic call (Test System: AMES SALMONELLA TYPHIMURIUM, Strain/Indicator: TA100, Metabolic Activation: NONE, Method: STANDARD PLATE) was “inactive; negative”, the mutagenic call (Test System: AMES SALMONELLA TYPHIMURIUM, Strain/Indicator: TA100, Metabolic Activation: RABBIT, LIVER, S-9, Method: STANDARD PLATE) was “inactive; negative” and the mutagenic call (Test System: AMES SALMONELLA TYPHIMURIUM, Strain/Indicator: TA100, Metabolic Activation: RABBIT, LUNG, S-9, Method: STANDARD PLATE) was “inactive; negative”. The mutagenic call (Test System: AMES SALMONELLA TYPHIMURIUM, Strain/Indicator: TA100, Metabolic Activation: RABBIT, NASAL, S-9, Method: STANDARD PLATE) was “inactive; negative”, the mutagenic call (Test System: AMES SALMONELLA TYPHIMURIUM, Strain/Indicator: TA100, Metabolic Activation: RAT LIVER S-9, AROCLOR, Method: PREINCUBATION) was “active; positive” and the mutagenic call (Test System: AMES SALMONELLA TYPHIMURIUM, Strain/Indicator: TA100, Metabolic Activation: RAT, INTACT UROTHELIAL CELLS, Method: FLUCTUATION TEST) was “active; positive”. For the same compound, the mutagenic call (Test System: AMES SALMONELLA TYPHIMURIUM, Strain/Indicator: TA100, Metabolic Activation: RAT, LIVER, S-9, AROCLOR 1254 (30%), Method: PREINCUBATION) was “inactive; negative”, the mutagenic call (Test System: AMES SALMONELLA TYPHIMURIUM, Strain/Indicator: TA100, Metabolic Activation: RAT, LIVER, S-9, AROCLOR 1254, Method: PREINCUBATION) was “active; positive” and the mutagenic call (Test System: AMES SALMONELLA TYPHIMURIUM, Strain/Indicator: TA100, Metabolic Activation: RAT, LIVER, S-9, KC500 OR PHENOBARBITAL, Method: LIQUID SUSPENSION) was “active; positive”. The mutagenic call (Test System: AMES SALMONELLA TYPHIMURIUM, Strain/Indicator: TA100, Metabolic Activation: RAT, LIVER, S-9, PHENOBARBITAL, Method: PREINCUBATION) was “active; positive”, the mutagenic call (Test System: AMES SALMONELLA TYPHIMURIUM, Strain/Indicator: TA100, Metabolic Activation: RAT, LUNG, S-9, Method: STANDARD PLATE) was “inactive; negative” and the mutagenic call (Test System: AMES SALMONELLA TYPHIMURIUM, Strain/Indicator: TA100, Metabolic Activation: RAT, NASAL, S-9, Method: STANDARD PLATE) was “inactive; negative”. The mutagenic call (Test System: AMES SALMONELLA TYPHIMURIUM, Strain/Indicator: TA100, Metabolic Activation: S-9, Method: PREINCUBATION) was “inactive; negative”, the mutagenic call (Test System: AMES SALMONELLA TYPHIMURIUM, Strain/Indicator: TA102, Metabolic Activation: NONE, Method: PREINCUBATION) was “inactive; negative” and the mutagenic call (Test System: AMES SALMONELLA TYPHIMURIUM, Strain/Indicator: TA102, Metabolic Activation: RAT LIVER S-9, AROCLOR, Method: PREINCUBATION) was “inactive; negative”. The mutagenic call (Test System: AMES SALMONELLA TYPHIMURIUM, Strain/Indicator: TA104, Metabolic Activation: RAT, LIVER, S-9, AROCLOR 1254, Method: PREINCUBATION) was “active; positive”, the mutagenic call (Test System: AMES SALMONELLA TYPHIMURIUM, Strain/Indicator: TA1530, Metabolic Activation: RAT, LIVER, S-9, PHENOBARBITAL, Method: PREINCUBATION) was “active; positive” and the mutagenic call (Test System: AMES SALMONELLA TYPHIMURIUM, Strain/Indicator: TA1530, Metabolic Activation: RAT, LIVER, S-9, Method: STANDARD PLATE) was “active; positive”. For the same compound, the mutagenic call (Test System: AMES SALMONELLA TYPHIMURIUM, Strain/Indicator: TA1535, Metabolic Activation: NONE, Method: PREINCUBATION) was “inactive; negative”, the mutagenic call (Test System: AMES SALMONELLA TYPHIMURIUM, Strain/Indicator: TA1535, Metabolic Activation: RAT, LIVER, HEPATOCYTES, Method: PREINCUBATION) was “active; positive” and the mutagenic call (Test System: AMES SALMONELLA TYPHIMURIUM, Strain/Indicator: TA1535, Metabolic Activation: RAT, LIVER, S-9, AROCLOR 1254, Method: PREINCUBATION) was “active; positive”. For the same compound, the mutagenic call (Test System: AMES SALMONELLA TYPHIMURIUM, Strain/Indicator: TA1535, Metabolic Activation: RAT, LIVER, S-9, AROCLOR, Method: PREINCUBATION) was “active; positive”, the mutagenic call (Test System: AMES SALMONELLA TYPHIMURIUM, Strain/Indicator: TA1535, Metabolic Activation: RAT, LIVER, S-9, SODIUM PHENOBARBITONE, Method: PREINCUBATION) was “active; positive” and the mutagenic call (Test System: AMES SALMONELLA TYPHIMURIUM, Strain/Indicator: TA1535, Metabolic Activation: RAT, LIVER, S-9, Method: PREINCUBATION) was “active; positive”. For the same compound, the mutagenic call (Test System: AMES SALMONELLA TYPHIMURIUM, Strain/Indicator: TA1535, Metabolic Activation: S-9, Method: PREINCUBATION) was “inactive; negative”, the mutagenic call (Test System: AMES SALMONELLA TYPHIMURIUM, Strain/Indicator: TA1535ER, Metabolic Activation: NONE, Method: STANDARD PLATE) was “inactive; negative” and the mutagenic call (Test System: AMES SALMONELLA TYPHIMURIUM, Strain/Indicator: TA1975, Metabolic Activation: RAT, LIVER, S-9, AROCLOR 1254, Method: PREINCUBATION) was “active; positive”.
